# Experimental data taken from patent US20250129048A1, “MELANOCORTIN 4 RECEPTOR ANTAGONISTS AND USES THEREOF” (Pfizer Inc., priority 2021, published 2025).
# Assays:
# [1] = biological target: human Melanocortin-4 receptor (MC4R) (Homo sapiens (Human), UniProt P32245); assay: Functional in vitro MC4R antagonist potency assay (intracellular cAMP, HTRF, CHO cells); assay type: cell-based; details: cAMP after EC80 agonist stimulation (200 nM αMSH); Kb from IC50 by Leff-Dougall equation; read-out: Kb (nM) Antagonist geometric mean
# Procedure: The functional in vitro antagonist potency for test compounds was determined by monitoring intracellular cyclic adenosine monophosphate (cAMP) levels in Chinese hamster ovary (CHO—) cells stably expressing the human Melanocortin-4 receptor (MC4R). Following agonist activation, human MC4R associates with the G-protein complex causing the Ga subunit to exchange bound GDP for GTP, followed by dissociation of the Gα-GTP complex. The activated Ga subunit can couple to downstream effectors to regulate the levels of second messengers or cAMP within the cell. Thereby, determination of intracellular cAMP levels allows for pharmacological characterization. Intracellular cAMP levels are quantitated using a homogenous assay utilizing the Homogeneous Time-Resolved Fluorescence (HTRF) technology from CisBio. The method is a competitive immunoassay between native cAMP produced by cells and the cAMP labelled with the acceptor dye, d2. The two entities then compete for binding to a monoclonal anti-cAMP antibody labeled with cryptate. The specific signal is inversely proportional to the concentration of cAMP in the cells.
# Test compounds were solubilized to 30 mM in 100% dimethyl sulfoxide (DMSO) and stored. An 11-point dilution series using 1 in 3 162-fold serial dilutions was created in 100% DMSO with a top concentration of 800 μM. The serially diluted compound was spotted into a 384-well plate (Greiner, Cat No. 781280) at 40 nL/well with duplicate points at each concentration, and then diluted 1 in 1000 with 40 μL assay buffer containing HBSS, 20 mM HEPES (Invitrogen), 0.1% BSA, and 250 μM IBMX (Sigma Aldrich) to create an intermediate plate at 2× final assay concentration (FAC). The final compound concentration range in the assay was 400 nM to […], with a final DMSO concentration of 0.1%.
# In-house generated CHO cells stably expressing the Gs-coupled human MC4R receptor were plated in 384-well assay plates (Corning, Cat No. 3570) in 50 μL/well of Ham's F-12 containing 10% heat inactivated FBS, 1× penicillin/streptomycin, 1 mM Glutamax (Invitrogen) at a density of 2,500 cells per well and incubated at 37° C. (95% O2: 5% CO2) overnight, with micro-clime lids (Labcyte, Cat No. LLS-0310). On day of assay, media was removed from the assay plate through gentle flicking and blotting plate on a paper towel and replaced with 5 μL of 2× antagonist compound in assay buffer (HBSS, 20 mM HEPES, 0.1% BSA, 250 μM IBMX) and 0.1% DMSO. Cells were incubated with compound for 30 minutes at 37° C. (95% O2: 5% CO2) before addition of 5 μL EC80 agonist stimulation (200 nM α-melanocyte stimulating hormone, αMSH, Bachem) and another 30-minute incubation at 37° C. (95% O2: 5% CO2). Intracellular cAMP levels were quantified as per Cisbio's protocol (5 μL of D2 and then 5 μL Cryptate, incubated for 1-2 hours at room temperature). Samples were measured on an Envision plate reader (PerkinElmer Life and Analytical Sciences; excitation, 320 nm; emission, 665 nm/620 nm).
# Data were analyzed using the ratio of fluorescence intensity at 620 and 665 nm for each well, extrapolated from the cAMP standard curve to express data as nM cAMP for each well. Data expressed as nM cAMP were then normalized to control wells using Activity Base (IDBS). Zero percent effect (ZPE) was defined as nM of cAMP generated from EC80 agonist stimulation (200 nM αMSH). In the absence of an antagonist control compound, one hundred percent effect (HPE) was defined as nM of cAMP generated from assay buffer/vehicle only.
# hMC4R = hMC4R (Homo sapiens (Human), UniProt P32245); assay: In vitro binding affinity assay using hMC4R (radioligand competition binding, CHO cell membranes); details: competition with [125I]-(Nle4, D-Phe7)-α-MSH 0.5 nM; Ki from IC50 by Cheng-Prusoff; read-out: Ki (nM) geometric mean
# Procedure: The binding affinity of test compounds at the α-melanocyte-stimulating hormone receptor (hMC4R) was assessed using a radioligand competition binding assay. Recombinant Chinese hamster ovaries (CHO) cells stably expressing hMC4R (PerkinElmer #ES-191-C) were used for competitive binding. hMC4R membranes were grown in Dulbecco's Modified Essential Medium and Ham's F-12 Medium (DMEM/F12), 10% heat inactivated fetal bovine serum (FBS), 0.4 mg/mL Geneticin and 2 mM L-glutamine. Cell membranes were bulked and frozen until the assay was performed.
# Compounds were solubilized in 100% dimethyl sulfoxide (DMSO) to a concentration of 30 mM. A 10-point intermediate dilution series using half log dilutions was created in 100% DMSO with a top concentration of 0.03 mM. The serially diluted compounds were spotted as 1 μL/well, in 96-well Costar 3363 plates. The final compound range in the assay was 300 nM to 0.01 nM with a final DMSO concentration of 1%. Control wells, containing 1 μL of 2 mM ([…]) alpha-melanocyte stimulating hormone (α-MSH-Tocris #2584) was added to the non-specific binding wells and 1 μL 100% DMSO for the total binding control wells. This was followed by the addition of 80 μL of assay buffer [25 mM HEPES, 5 mM MgCl2, 2.5 mM CaCl2, 150 mM NaCl, Complete EDTA-free Protease Inhibitor Tablet (Thermo Scientific #11873580001) and 0.25% BSA]. […] The exact concentration of radioligand used for each experiment was determined by liquid scintillation counting and adjusted if necessary.
# Frozen hMC4R cell membranes were thawed and Dounce homogenized. Homogenates were resuspended in assay buffer to a concentration of 2 μg per well. […] The plates were incubated for 2 hours at room temperature. Assay samples were then rapidly filtered through Unifilter-96 GF/B PEI coated filter plates using a filter plate harvester (PerkinElmer) and rinsed with ice-cold wash buffer [25 mM (4-(2-hydroxyethyl)-1-piperazineethanesulfonic acid (HEPES), 1 mM MgCl2, 2.5 mM CaCl2, and 500 mM NaCl]. Filter plates were dried overnight at room temperature. Plates were then bottom-sealed prior to the addition of 50 μL/well Ultima Gold XR scintillation fluid (PerkinElmer 6013111). Plates were then top-sealed, incubated for 60 minutes at room temperature and then the amount of radioactivity present was determined by liquid scintillation counting on a Microbeta Trilux (PerkinElmer #2450-0060).
# The raw data (expressed as counts per minute) were analyzed using ActivityBase (IDBS Data Management Software). […] Equilibrium dissociation constant for inhibitor of ligand and receptor interaction (Ki) values were then calculated from the IC50 values using the Cheng-Prusoff equation: Ki=IC50/(1+([L]/Kd)), where [L] is the concentration of the radioligand used in the experiment and Kd is the affinity of the radioligand (determined in separate saturation experiments).
# Chain of human Melanocortin-4 receptor (MC4R) (P32245 whole entry): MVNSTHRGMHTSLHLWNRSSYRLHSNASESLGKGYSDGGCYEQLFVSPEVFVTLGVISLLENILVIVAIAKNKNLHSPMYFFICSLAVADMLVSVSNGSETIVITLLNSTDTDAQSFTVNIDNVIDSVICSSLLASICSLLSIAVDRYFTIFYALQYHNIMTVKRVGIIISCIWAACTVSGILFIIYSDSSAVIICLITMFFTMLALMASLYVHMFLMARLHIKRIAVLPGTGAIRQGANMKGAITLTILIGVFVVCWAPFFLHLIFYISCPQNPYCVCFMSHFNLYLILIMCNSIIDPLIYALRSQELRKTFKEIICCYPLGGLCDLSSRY
# Chain of hMC4R (P32245 whole entry): as above
Kb [1] [nM],Ki (hMC4R) [nM],SMILES
1.9,0.31,"COc1cc([C@@H](C)C(=O)N2CC[C@H](Nc3ccc(-c4cn(C)c(C(F)F)n4)c(C)n3)C2)cc(OC)n1 (single isomer, unassigned) [Example 12A]"
2.9,0.34,"Cc1nc(N[C@H]2CCN(C(=O)[C@H](F)c3ccccc3)C2)ccc1-c1cn(C)cn1 (single isomer, unassigned) [Example 13B]"
14,0.45,"COc1cccc([C@@H](C)C(=O)N2CC[C@H](Nc3ccc(-c4cn(C)c(C(C)(F)F)n4)c(C)n3)C2)c1 (single isomer, unassigned) [Example 14B]"
2.1,0.23,"COc1cc([C@@H](C)C(=O)N2CC[C@H](Nc3ccc(-c4cn(C)c(C(C)(F)F)n4)c(C)n3)C2)c(C)cn1 (single isomer, unassigned) [Example 16B]"
2.9,0.23,"COc1ccc(C)c([C@@H](C)C(=O)N2CC[C@H](Nc3ccc(-c4cn(C)cn4)c(C)n3)C2)c1 (single isomer, unassigned) [Example 20B]"
2.6,0.48,"COc1cc([C@@H](C)C(=O)N2CC[C@H](Nc3ccc(-c4cn(C)c(C(C)(F)F)n4)c(C)n3)C2)c(F)cn1 (single isomer, unassigned) [Example 21B]"
> 110,120,"COc1cc([C@@H](C)C(=O)N2CC[C@H](Nc3ccc(-c4ncccn4)c(C)n3)C2)c(C)cn1 (single isomer, unassigned) [Example 22A]"
8.1,2.1,"COc1cc([C@@H](C)C(=O)N2CC[C@H](Nc3ccc(-c4ncccn4)c(C)n3)C2)c(C)cn1 (single isomer, unassigned) [Example 22B]"
0.96,0.49,"COc1cc([C@@H](C)C(=O)N2CC[C@H](Nc3ccc(-c4nc(C(F)F)n(C)n4)c(C)n3)C2)c(Cl)cn1 (single isomer, unassigned) [Example 24B]"
1.8,0.49,"COc1cc([C@@H](C)C(=O)N2CC[C@H](Nc3ccc(-c4nc(C(F)(F)F)n(C)n4)c(C)n3)C2)c(Cl)cn1 (single isomer, unassigned) [Example 25B]"
> 150,> 170,"COc1cc([C@@H](C)C(=O)N2CC[C@H](Nc3ccc(-c4nnn(C)n4)c(C)n3)C2)c(C)cn1 (single isomer, unassigned) [Example 26A]"
5.6,2.1,"COc1cc([C@@H](C)C(=O)N2CC[C@H](Nc3ccc(-c4nnn(C)n4)c(C)n3)C2)c(C)cn1 (single isomer, unassigned) [Example 26B]"
> 62,> 200,"COc1cc([C@@H](C)C(=O)N2CC[C@H](Nc3ccc(-c4ncccn4)c(C)n3)C2)cc(OC(F)F)n1 (single isomer, unassigned) [Example 30A]"
6.8,0.93,"COc1cc([C@@H](C)C(=O)N2CC[C@H](Nc3ccc(-c4ncccn4)c(C)n3)C2)cc(OC(F)F)n1 (single isomer, unassigned) [Example 30B]"
3.3,1.1,"COc1cc([C@@H](C)C(=O)N2CC[C@H](Nc3ccc(-c4nc(C(F)F)n(C)n4)c(C)n3)C2)ccn1 (single isomer, unassigned) [Example 33B]"
4.1,0.53,"COc1cc([C@@H](C)C(=O)N2CC[C@H](Nc3ccc(-c4nc(C(C)(F)F)n(C)n4)c(C)n3)C2)c(Cl)cn1 (single isomer, unassigned) [Example 37B]"
3.2,0.31,"COc1cc([C@@H](C)C(=O)N2CC[C@H](Nc3ccc(-c4cn(C)c(C(F)F)n4)c(C)n3)C2)c(F)cn1 (single isomer, unassigned) [Example 38B]"
7.2,0.29,"COc1cc(OC(F)F)cc([C@@H](C)C(=O)N2CC[C@H](Nc3ccc(-c4nc(C(C)(F)F)n(C)n4)c(C)n3)C2)c1 (single isomer, unassigned) [Example 40B]"
3.6,2,"COc1cc([C@@H](C)C(=O)N2CC[C@H](Nc3ccc(-c4nc(C(F)F)n(C)n4)c(C)n3)C2)nc(C)n1 (single isomer, unassigned) [Example 41B]"
> 97,> 220,"COc1cc(OC(F)F)cc([C@@H](C)C(=O)N2CC[C@H](Nc3ccc(-c4ncccn4)c(C)n3)C2)c1 (single isomer, unassigned) [Example 44A]"
4.1,0.77,"COc1cc(OC(F)F)cc([C@@H](C)C(=O)N2CC[C@H](Nc3ccc(-c4ncccn4)c(C)n3)C2)c1 (single isomer, unassigned) [Example 44B]"

SMILES,Kb [1] [nM],Ki (hMC4R) [nM]
"COc1cc([C@@H](C)C(=O)N2CC[C@H](Nc3ccc(-c4nnn(C)n4)c(C)n3)C2)c(Cl)cn1 [Example 1, (2R)-2-(5-chloro-2-methoxypyridin-4-yl)-1-[(3S)-3-{[6-methyl-5-(2-methyl-2H-tetrazol-5-yl)pyridin-2-yl]amino}pyrrolidin-1-yl]propan-1-one]",5.1,0.88
"COc1cc([C@@H](C)C(=O)N2CC[C@H](Nc3ccc(-c4nc(C(F)(F)F)n(C)n4)c(C)n3)C2)c(F)cn1 [Example 2, (2R)-2-(5-fluoro-2-methoxypyridin-4-yl)-1-[(3S)-3-({6-methyl-5-[1-methyl-5-(trifluoromethyl)-1H-1,2,4-triazol-3-yl]pyridin-2-yl}amino)pyrrolidin-1-yl]propan-1-one]",7.2,1.2
